The test system of the series is pronase. The series can be described thus: Proteolytic degradation assay with pronase (RP-HPLC, MALDI-TOF-MS). It counts as in vitro ADME. Conditions: Streptomyces griseus, pronase (isolated proteolytic enzyme) in DPBS; pronase 0.35 U/mL in DPBS, 37° C., 50 μM peptide, after 3 hours; read-out: peptide cleavage. As for the experimental part: The stability of drug delivery systems serves as a basis for enhancing half-life of therapeutic cargos during the course of delivery to targeted areas. To evaluate the stability of peptide brush polymers, positively charged poly(GGSGSGK) and its single peptide analogue GGSGSGK were treated with pronase, a robust proteolytic enzyme isolated from the extracellular fluid of Streptomyces griseus. RP-HPLC and MALDI-TOF mass spectroscopy were used to quantify the cleavage of peptides (FIGS. 30-33). As expected, the peptide underwent rapid degradation in the presence of pronase, resulting in approximately 75% peptide cleavage after 3 hours.
Monomer Nor-GGSGSGK and polymer Poly(GGSGSGK) (50 μM, with respect to peptide concentration) were treated with pronase (0.35 U/mL) in DPBS at 37° C. After treatment, the enzyme was heat denatured at 65° C. for 15 min.

Structures are written as SMILES. Peptide text beside a SMILES is read from it. * marks the point of attachment. X1 = O=C1C2C3C=CC(C3)C2C(=O)N1CC(=O)*

In the case of `NCCCC[C@H](NC(=O)CNC(=O)[C@H](CO)NC(=O)CNC(=O)[C@H](CO)NC(=O)CNC(=O)CN1C(=O)C2C3C=CC(C3)C2C1=O)C(N)=O` (stereo partly shown) [GGSGSGK] (X1-GSGSGK-NH2; N-terminus assumed), the metabolised at 3 h, 50 μM is around 75%.

These data come from patent publication US12678510B2, “Drug loaded peptide brush polymers” (priority 2020, dated 2026).
